Test results from patent US20260191825A1, “CONTRACEPTIVE COMPOUNDS AND DOSING FOR THE SAME” (YourChoice Therapeutics, Inc., priority 2024, published 2026).
Several values for one entry are separate records, joined by “and”; a condition that tells them apart may be missing. Identical values can stand only once. Entries after “also recorded” stand apart in the source; their conditions may differ. Like-named read-outs stand apart in the source and are kept apart here.

How the values were obtained:
[1] = In vitro stability in microsomes (dog); format: in vitro ADME; settings: dogs
Description: (§1) Respective half-lives (T1/2) were 9.5 hours (human), 23.1 hours (monkeys), >23.1 hours (mice), >23.1 hours (rats), 19.6 hours (rabbits), and >23.1 hours (dogs).

[2] = system: male rats; assay: Rat single dose GLP study (toxicity, sperm parameters); format: in vivo
Source text: (§2) No efficacy was observed after single dose studies in the rat.

[3] = as above; format: in vivo; settings: male, in vivo; rat, single dose; highest dose tested
Source text: as §2

[4] = system: rat micronucleus; assay: In vivo rat micronucleus study; settings: highest doses tested
[5] = NHP non-GLP 14-day repeat-dose study, PK at the NOAEL; settings: male, cynomolgus monkey, in vivo, 10 mg/kg, 10 mg/kg (NOAEL); for AUC(0-t): read-out: AUC0-24
[6] = system: male Cynomolgus macaques; assay: NHP repeat dose non-GLP efficacy study (sperm counts, MABEL); format: in vivo, cynomolgus macaque
Description: Animals and husbandry. Six (6) sexually mature, non-naïve male Cynomolgus macaques (8-15 years, 6-15 kg) were used. The animals were individually housed in a humidity- and temperature-controlled facility under a 12 h light/12 h dark diurnal cycle with two daily meals and water ad libitum. The animals were provided with cage toys and daily fresh fruits for environmental enrichment. The animals were acclimated for 2 weeks and observed twice daily to assess overall health and behavior. The animal use protocol was approved by WuXi App Tec's IACUC per the Association for Assessment and Accreditation of Laboratory Animal Care (AAALAC) guideline. The conduct of the study followed the Guidance for the Care and Use of Laboratory Animals (NRC 2011, 8th Edition), with a USDA Category C for the pain and distress level. The humane endpoints included: significant body weight drop of 20% within 7 days, severe adverse effort associated with the administration of the test article, pain and distress caused by any of the in-life procedures, and injury sustained during any time of the experiment that could impact the well-being of the animal (all determined by attending veterinarian). All animals were non-naïve and only animals that had normal hematology and serum chemistry parameters, and normal baseline sperm counts were included in the studies. After the end of the study, all animals were returned to the colony. Confounders were not controlled.
Dosing regimens. […] The formulation (Compound A in saline) was prepared freshly each day of dosing. […] Repeat dose administration: Three (3) Cohort 1 animals were dosed at 0.5 mg/kg/day (Day 1-46) followed by 1.5 mg/kg/day (Day 47-51), 2.5 mg/kg/day (Day 52-101) and 5 mg/kg/day (Day 102-108). Three (3) Cohort 2 animals were dosed at 5 mg/kg/day (Day 1-30) followed by 7.5 mg/kg/day (Day 31-37). No control animals were used in the single and repeat dose studies. Since bioavailability was assessed at time point zero in the PK study and sperm parameters were assessed at pre-dose in the efficacy studies, each animal served as its own control.
Semen collection and sperm count/concentration assessment. Semen samples were obtained once per week or once every other week via electroejaculation during the entire repeat dose study periods from all 3 animals per Cohort to assess sperm concentration and count. Samples were left at room temperature for 30 min to allow for liquefication. Liquefied semen was diluted with 3% NaCl solution for manual sperm count assessment using a hemocytometer. All samples were analyzed in triplicates. Sperm concentration per ejaculate was calculated with the following formula: Sperm concentration=Sperm count×104×Dilution factor. No data point was excluded from the analysis.
Testicular biopsy collection and histology. Testicular biopsies (2 per animal; one from the right and one from the left testicle) were taken 24 h after administering the last dose and on the last day of the recovery period from all 3 animals per Cohort to assess morphological changes. Preoperative care of animals consisted of food restriction and general examination. All surgical procedures were conducted using aseptic techniques and comprehensive physiologic monitoring. The animals were anesthetized with Zoletil 50 (5 mg/kg) by intramuscular (i.m.) injection. The scrotum was disinfected with iodine and 75% alcohol, and lidocaine (1%) was administered intradermally at the biopsy needle insertion site. Core biopsies (one per testis) were collected with a 16 G TSK starcut biopsy needle. Immediately after biopsy collection, animals received Meloxicam (0.2 mg/kg) and Ketorolac (10 mg) for pain relief, and Ceftriaxone sodium (0.5 g) as […] (all via i.m. injection). Meloxicam was given once daily for 3 consecutive days, Ketorolac twice daily for 2 days, and Ceftriaxone sodium once daily for 4 days post-collection. […]

[7] = In vitro molar extinction coefficient assay; format: physicochemical; settings: UV light
Source text: As a result, participants will be advised to minimize exposure to sunlight, wear sunglasses and clothing that minimizes exposure to sunlight, and use sun cream on exposed areas when going outdoors during the 28-Day dosing period and until 10 days post last dose.

[8] = system: mice; assay: Repeat dose study in mice (sperm counts); format: in vivo, mouse
[9] = system: mammalian cell; assay: Chromosomal aberration assay (in vitro mammalian cell assay); format: cell-based; settings: highest doses tested
[10] = Metabolite identification in pooled hepatocytes (all species); format: in vitro ADME, human, monkey, mouse, rat, rabbit, dog
Source text: Overall, each metabolite was present at less than 10% of the recoverable metabolic profile across all species. The rat produced 6 of the 8 quantified human metabolites and the dog produced 4 of the 8 human metabolites. […] Because the presence of these metabolites was ≤10% of the recoverable metabolic profile, and because all other human metabolites were represented in either the rat or dog, these 2 species were considered relevant species to assess toxicity.

[11] = In vitro stability in liver microsomes (human); format: in vitro ADME
Description: as §1

[12] = system: CYP3A4/5; assay: In vitro CYP inhibition (direct and time-dependent), CYP3A4/5; format: in vitro ADME; settings: human
Source text: However, the likelihood of drug interactions is low since healthy participants who meet eligibility criteria will be enrolled in this Phase 1b/2a clinical trial. An allowance for select concomitant medications may be considered for select participants at the discretion of the investigator and/or sponsor if drug profiles are not anticipated to interact with Compound A. Such medications may include, but will not be limited to paracetamol or ibuprofen as assessed by both the PI and the Sponsor. […] Additional precautions to avoid grapefruit, pomegranates, star fruit, or Seville oranges for 7 days prior to admission, and juices and products containing these fruits for the duration of the study will be taken.

SMILES: Cc1ccc(C2=CC(C)(C)Oc3ccc(-c4ccc(-c5ccc(C(=O)O)cc5)[nH]4)cc32)cc1 [Compound A]
- half-life ([1]; dog, read-out: Half-life (T1/2) in microsomes): > 23.1 h
- Compound remaining intact ([1]; 90 minutes): 101%
- Tolerated single dose (highest dose tested) ([2]; male rats, GLP study): 1,000 mg/kg
- Human dose 60 kg, safety factor 10 ([2]; male, rat, in vivo, 15 days): 967.74 mg
- HED ([2]; rat, single dose 1,000 mg/kg): 161.3 mg/kg and 161.29 mg/kg
- Impact on sperm parameters after single dose ([2]; rats, single doses as high as 1,000 mg/kg, Day 15 post dose): no impact on sperm parameters
- NOAEL at 15 days [3]: 1000 mg/kg
- Genotoxicity: rat micronucleus [4]: not genotoxic; also recorded: no genotoxic potential; also recorded: Clean
- half-life ([5]; Day 1, mean ± SD): 7.9 ± 1.7 h
- AUC(0-t) ([5]; Day 1, mean): 147 µg·h/mL
- Cmax ([5]; Day 1, n = 3, mean): 13 µg/mL
- Cmax ([5]; Day 14, mean): 6.53 µg/mL
- half-life ([5]; Day 14, mean ± SD): 6.2 ± 0.4 h
- AUC(0-t) ([5]; Day 14, mean): 69.7 µg·h/mL
- HED (based on BSA) of MABEL ([6]; NHP): 0.8 mg/kg
- HED for 60 kg BW of MABEL ([6]; NHP): 48 mg
- HED for 80 kg BW of MABEL ([6]; NHP): 64 mg
- MABEL ([6]; NHP, 49-day repeat dose non-GLP): 2.5 mg/kg/day
- Lowest dose with decreases in sperm counts ([6]; NHP, repeat dose for 7 weeks): 2.5 mg/kg/day
- Reversibility of antispermatogenic effect ([6]; NHPs): 1.5-3.5 spermatogenic cycles
- Phototoxicity potential [7]: potential to cause phototoxicity
- Reversibility of antispermatogenic effect ([8]; mice): ≤ 1 spermatogenic cycle
- Lowest dose with decreases in sperm counts ([8]; mouse, repeat dose for 4 weeks): 2.5 mg/kg/day
- Genotoxicity: chromosomal aberration [9]: not genotoxic; also recorded: no genotoxic potential; also recorded: Clean
- Metabolites yielded by biotransformation ([10]; 10 μM, pooled hepatocytes): 10 metabolites
- Human metabolites produced (of the 8) ([10]; dog hepatocytes): 4
- Quantified human metabolites produced (of the 8) ([10]; rat hepatocytes): 6
- Half-life (T1/2) in microsomes [11]: 9.5 h
- IC50 ([12]; CYP3A4/5, midazolam as substrate): 58.6 µM
- IC50 ([12]; CYP3A4/5, testosterone as substrate): 53.6 µM
